Data published in ChEMBL document CHEMBL1201862, “PubChem BioAssay data set” (2004).
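Compound exposure: 48 hours, 5 concentrations, 96-well plates. Abbreviation: GI50, concentration required for 50% inhibition of growth.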 Calls of active or inactive are those of the source. No stated cut-off is given here; in the data, active = GI50 up to about 1.1 µM and inactive = higher.

Assays:
Assay in all cases: NCI-60 cell line screen, 48 h
COLO 205 = test system: COLO 205
SF-295 = test system: SF-295
Malme-3M = test system: Malme-3M
U-251 = test system: U-251
UACC-257 = test system: UACC-257
NCI/ADR-RES = test system: NCI/ADR-RES
HCT-15 = test system: HCT-15
BT-549 = test system: BT-549
PC-3 = test system: PC-3
MDA-MB-231 = test system: MDA-MB-231
TK-10 = test system: TK-10
UO-31 = test system: UO-31
SF-539 = test system: SF-539
SR = test system: SR
OVCAR-4 = test system: OVCAR-4
LOX IMVI = test system: LOX IMVI
CAKI-1 = test system: CAKI-1
SF-268 = test system: SF-268
HL-60 = test system: HL-60
RXF 393 = test system: RXF 393

Structure (SMILES)	GI50 (COLO 205)	GI50 (SF-295)	GI50 (Malme-3M)	GI50 (U-251)	GI50 (UACC-257)	GI50 (NCI/ADR-RES)	GI50 (HCT-15) [µM]	GI50 (BT-549)	GI50 (PC-3)	GI50 (MDA-MB-231)	GI50 (TK-10)	GI50 (UO-31)	GI50 (SF-539)	GI50 (SR)	GI50 (OVCAR-4)	GI50 (LOX IMVI)	GI50 (CAKI-1)	GI50 (SF-268)	GI50 (HL-60)	GI50 (RXF 393)
Cn1cco/c1=N/c1ccc(Cl)c(Cl)c1	> 10 µM (inactive)	> 10 µM (inactive)	> 10 µM (inactive)	> 10 µM (inactive)	> 10 µM (inactive)	> 10 µM (inactive)	> 10	> 10 µM (inactive)	> 10 µM (inactive)	> 10 µM (inactive)	> 10 µM (inactive)	> 10 µM (inactive)	> 10 µM (inactive)	> 10 µM (inactive)	> 10 µM (inactive)	> 10 µM (inactive)	> 10 µM (inactive)	> 10 µM (inactive)		
CCCCn1c(N)c(-c2nc3ccccc3o2)sc1=S	29.4 µM (inactive)	12.6 µM (inactive)	16.3 µM (inactive)	15.9 µM (inactive)	60.7 µM (inactive)	18.2 µM (inactive)	15.4	26.3 µM (inactive)	23.4 µM (inactive)	16.8 µM (inactive)	18.3 µM (inactive)	20 µM (inactive)	10.1 µM (inactive)	17.7 µM (inactive)	5.81 µM (inactive)		13.7 µM (inactive)	16.4 µM (inactive)	> 100 µM (inactive)	36.7 µM (inactive)
CN(C)S(=O)(=O)c1ccc2c(c1)/C(=C1/Nc3ccccc3C1=O)C(=O)N2	> 100 µM (inactive)	12.9 µM (inactive)	> 100 µM (inactive)	10.6 µM (inactive)	> 100 µM (inactive)	71.9 µM (inactive)	87.9	15 µM (inactive)	23 µM (inactive)	17 µM (inactive)	19.5 µM (inactive)	44.3 µM (inactive)		14.7 µM (inactive)	> 100 µM (inactive)	41.6 µM (inactive)	> 100 µM (inactive)	14.7 µM (inactive)		1.71 µM (inactive)
CSc1ccc(/C=C2\N=C(c3ccccc3)N(/N=C/c3cc4cc(C)ccc4nc3Cl)C2=O)cc1	16.7 µM (inactive)	17.9 µM (inactive)		20 µM (inactive)	19.4 µM (inactive)	19.1 µM (inactive)	23.3	22.8 µM (inactive)	16.9 µM (inactive)	19.6 µM (inactive)	16.9 µM (inactive)	15 µM (inactive)	16.5 µM (inactive)	12.1 µM (inactive)	17.1 µM (inactive)	18.6 µM (inactive)	18.1 µM (inactive)	19.1 µM (inactive)	22 µM (inactive)	
N=c1c2sc3nc4ccccc4n3c2ncn1Cc1ccccc1	> 100 µM (inactive)	> 100 µM (inactive)	> 100 µM (inactive)	> 100 µM (inactive)	> 100 µM (inactive)	> 100 µM (inactive)	> 100	> 100 µM (inactive)	> 100 µM (inactive)	> 100 µM (inactive)	84.3 µM (inactive)	> 100 µM (inactive)	> 100 µM (inactive)	> 100 µM (inactive)	> 100 µM (inactive)	> 100 µM (inactive)	> 100 µM (inactive)	> 100 µM (inactive)		63.5 µM (inactive)
Clc1ccc(NCc2nnc(COc3ccc(OCc4nnc(CNc5ccc(Cl)cc5)o4)c(Cl)c3)o2)cc1	10.9 µM (inactive)	20.7 µM (inactive)	51.1 µM (inactive)	39.3 µM (inactive)	43.1 µM (inactive)	5.68 µM (inactive)	43.6	22.3 µM (inactive)	24 µM (inactive)	15.7 µM (inactive)	56.9 µM (inactive)	26.4 µM (inactive)		0.303 µM (active)		20.3 µM (inactive)	28.7 µM (inactive)	33.7 µM (inactive)	3.52 µM (inactive)	47.3 µM (inactive)
O=Cc1c(C(=O)O)[nH]c(=O)[nH]c1=O	> 100 µM (inactive)	> 100 µM (inactive)	> 100 µM (inactive)	> 100 µM (inactive)	> 100 µM (inactive)	> 100 µM (inactive)	> 100	> 100 µM (inactive)	> 100 µM (inactive)	> 100 µM (inactive)	> 100 µM (inactive)	> 100 µM (inactive)	> 100 µM (inactive)	> 10 µM (inactive)		> 100 µM (inactive)	> 100 µM (inactive)	> 100 µM (inactive)	> 100 µM (inactive)	> 100 µM (inactive)
O=[N+]([O-])c1ccc(N2N=C(c3c(O)ccc4ccccc34)CC2c2ccc(Cl)cc2)c([N+](=O)[O-])c1 (stereo not given)	16.1 µM (inactive)	4.59 µM (inactive)	15.2 µM (inactive)	30 µM (inactive)	37.1 µM (inactive)	16.4 µM (inactive)	14	32.5 µM (inactive)	6.4 µM (inactive)	23.8 µM (inactive)	41 µM (inactive)	17.9 µM (inactive)	30.1 µM (inactive)	6.97 µM (inactive)	64.9 µM (inactive)		28.7 µM (inactive)	29.5 µM (inactive)		20 µM (inactive)
CCN(CC)C1=Nc2ccccc2-n2ccnc2C1	> 100 µM (inactive)	> 100 µM (inactive)		> 100 µM (inactive)	> 100 µM (inactive)	> 100 µM (inactive)	> 100	> 100 µM (inactive)	> 100 µM (inactive)	> 100 µM (inactive)	> 100 µM (inactive)	> 100 µM (inactive)	> 100 µM (inactive)	> 100 µM (inactive)	> 100 µM (inactive)	> 100 µM (inactive)	> 100 µM (inactive)	> 100 µM (inactive)	78.2 µM (inactive)	> 100 µM (inactive)
Cc1ccc(-c2nc(-c3cnccn3)n(C3OC(CO)C(O)C(O)C3O)n2)cc1 (stereo not given)	> 100 µM (inactive)	> 100 µM (inactive)		> 100 µM (inactive)	> 100 µM (inactive)	> 100 µM (inactive)	> 100	> 100 µM (inactive)	> 100 µM (inactive)	> 100 µM (inactive)	> 100 µM (inactive)	> 100 µM (inactive)	> 100 µM (inactive)	> 100 µM (inactive)	> 100 µM (inactive)	> 100 µM (inactive)		> 100 µM (inactive)	> 100 µM (inactive)	> 100 µM (inactive)
O=C1C(c2c(O)[nH]c3ccc(F)cc23)=Nc2ccccc21	> 100 µM (inactive)	27.4 µM (inactive)	> 100 µM (inactive)	13.3 µM (inactive)	> 100 µM (inactive)	> 100 µM (inactive)	> 100	> 100 µM (inactive)	> 100 µM (inactive)	12.9 µM (inactive)	22.1 µM (inactive)	> 100 µM (inactive)		> 100 µM (inactive)		> 100 µM (inactive)	> 100 µM (inactive)	15.1 µM (inactive)		3.19 µM (inactive)
CCCCCCCCCCC(C(=O)O)C1(C(=O)O)CCC(=O)O1 (stereo not given)	> 100 µM (inactive)	> 100 µM (inactive)		> 100 µM (inactive)	> 100 µM (inactive)	> 100 µM (inactive)	> 100	> 100 µM (inactive)	> 100 µM (inactive)	> 100 µM (inactive)	> 100 µM (inactive)	> 100 µM (inactive)		> 100 µM (inactive)	43.2 µM (inactive)	> 100 µM (inactive)	> 100 µM (inactive)	> 100 µM (inactive)	90.8 µM (inactive)	> 100 µM (inactive)
CN1CCC(n2[nH]c(-c3ccccc3)c(Cc3ccccc3)c2=O)CC1 [BENZPIPERYLON]	> 100 µM (inactive)	> 100 µM (inactive)	90.8 µM (inactive)	> 100 µM (inactive)	> 100 µM (inactive)	> 100 µM (inactive)	> 100	> 100 µM (inactive)	> 100 µM (inactive)	> 100 µM (inactive)	> 100 µM (inactive)	88.9 µM (inactive)	57.1 µM (inactive)	33.3 µM (inactive)	> 100 µM (inactive)	> 100 µM (inactive)	> 100 µM (inactive)	> 100 µM (inactive)		63 µM (inactive)
COc1ccc(C2CC(c3c(O)ccc4ccccc34)=NN2C(C)=O)cc1OC (stereo not given)	17 µM (inactive)	37.4 µM (inactive)	31 µM (inactive)	29.6 µM (inactive)	34.8 µM (inactive)	26.5 µM (inactive)	30.1	17 µM (inactive)	23.6 µM (inactive)	18.5 µM (inactive)	53.3 µM (inactive)	23.1 µM (inactive)	18.7 µM (inactive)	14.2 µM (inactive)	44.3 µM (inactive)		36.5 µM (inactive)	31.4 µM (inactive)		24.1 µM (inactive)
CC(=O)N(C(C)=O)c1ncc(-n2nc(-c3ccccc3)cc2-c2ccccc2)c(-c2ccccc2)n1	> 10 µM (inactive)	> 10 µM (inactive)	> 10 µM (inactive)	> 10 µM (inactive)	> 10 µM (inactive)	> 10 µM (inactive)	8.91	> 10 µM (inactive)	> 10 µM (inactive)	> 10 µM (inactive)	> 10 µM (inactive)		> 10 µM (inactive)	3.5 µM (inactive)	> 10 µM (inactive)	6.73 µM (inactive)	> 10 µM (inactive)	> 10 µM (inactive)	7.83 µM (inactive)	> 10 µM (inactive)
